≈ marks a conversion by molar mass, not a printed value. Where “and” joins values, the source holds several entries; their conditions need not be identical. Equal values may be shown once.
Experiments:
Type in all cases: physicochemical
[1] = Solubility in neat solvents, shake-flask with spectrophotometric determination; details: for solubility at 24 h: 25 °C, organic solvent or mixture, thermodynamic from solid
Experimental: (§1) The calibration curves for each derivative were obtained using successful dilutions of initial stock solutions followed by spectrophotometric measurements of the obtained solutions with decreasing concentration. The concentration ranges for the derivatives 1, 2, and 3 were 0.0081–0.0405 mg/mL, 0.0077–0.0385 mg/mL, and 0.0068–0.017 mg/mL, respectively. Methanol was used both as a solvent, as well as a reference for spectrophotometric measurements. […] The A360 spectrophotometer from AOE Instruments was used for the preparation of the calibration curves. […] Three calibration curves were prepared for each derivative and then averaged.
(§2) A multi-step procedure was employed in order to find the solubility of the studied derivatives in the selected solvents. First of all, the excess amount of the considered compound was added to test tubes containing either neat solvents or their mixtures with water in different proportions, thus forming binary solvents. Saturated solutions were obtained in this way, placed in a Shaker Incubator ES-20/60 from Biosan, and incubated for 24 h at 298.1 K. The temperature adjustment was possible with a 0.1-degree accuracy, and the variance within a 24 h cycle was 0.5 degrees. The samples were simultaneously mixed at 60 rev/min. After incubation, the samples were filtered with the help of plastic syringes equipped with PTFE filters with 0.22 µm pore size. The obtained filtrates were diluted with methanol in another set of test tubes. In order to determine the mole fractions of a solute in the solution, 1 mL of the filtered samples was weighed in 10 mL volumetric flasks using a RADWAG AS 110 R2.PLUS analytical balance. The samples diluted with methanol were measured spectrophotometrically using the same instrument as was used in the case of calibration curves. The spectra were recorded in the wavelength range of 190–500 nm, and the resolution was 1 nm. Methanol was used if further dilution of the sample was required, and it was also used as a reference for calibrating the spectrophotometer. The absorbance values at 315 nm, 321 nm, and 321 nm were taken into account for derivatives 1, 2, and 3, respectively. Based on the calibration curves, the concentration of the solute in the samples was determined together with its mole fraction. Three separate measurements were conducted, and the final values are the results of averaging them.

[2] = Solubility in NMP-water binary mixtures; details: for solubility at 24 h: thermodynamic from solid
Experimental: as §1, §2

[3] = Solubility in DMSO-water binary mixtures; details: for solubility at 24 h: 25 °C, thermodynamic from solid
Experimental: as §1, §2

[4] = neat γ-nonanoic lactone, 298.1 K

## Nc1cccc(C(=O)NN=C2C(=O)Nc3ccc([N+](=O)[O-])cc32)c1 [derivative 2, 3-Amino-N′-[5-nitro-2-oxo-1,2-dihydro-3H-indol-3-ylidene]benzohydrazide]
[1]; neat DMF, 298.1 K
  solubility at 24 h: 15300 µg/mL (≈ 47 mM)
  solubility x: 3.66 × 10^−3 mole fraction and 3.66 (0.06) × 10^−3 mole fraction
[1]; neat DMP, 298.1 K
  solubility at 24 h: 290 µg/mL (≈ 0.892 mM)
  solubility x: 1.05 (0.03) × 10^−4 mole fraction
[1]; neat DMSO, 298.1 K
  solubility at 24 h: 21400 µg/mL (≈ 65.8 mM)
  solubility x: 4.63 × 10^−3 mole fraction and 4.63 (0.14) × 10^−3 mole fraction
[1]; neat NMP, 298.1 K
  solubility at 24 h: 32700 µg/mL (≈ 101 mM)
  solubility x: 9.80 × 10^−3 mole fraction and 9.80 (0.13) × 10^−3 mole fraction
[1]; neat acetone, 298.1 K
  solubility at 24 h: 900 µg/mL (≈ 2.77 mM)
[1]; neat acetonitrile, 298.1 K
  solubility at 24 h: 610 µg/mL (≈ 1.88 mM)
  solubility x: 0.96 (0.03) × 10^−4 mole fraction
[1]; neat cyrene, 298.1 K
  solubility at 24 h: 750 µg/mL (≈ 2.31 mM)
  solubility x: 2.36 (0.04) × 10^−4 mole fraction
[1]; neat diglyme, 298.1 K
  solubility at 24 h: 1190 µg/mL (≈ 3.66 mM)
  solubility x: 5.22 (0.10) × 10^−4 mole fraction
[1]; neat dioxane, 298.1 K
  solubility at 24 h: 960 µg/mL (≈ 2.95 mM)
  solubility x: 2.49 (0.05) × 10^−4 mole fraction
[1]; neat ethyl lactate, 298.1 K
  solubility at 24 h: 560 µg/mL (≈ 1.72 mM)
  solubility x: 1.95 (0.04) × 10^−4 mole fraction
[1]; neat methanol, 298.1 K
  solubility at 24 h: 310 µg/mL (≈ 0.953 mM)
  solubility x: 0.39 (0.01) × 10^−4 mole fraction
[1]; neat tetraglyme, 298.1 K
  solubility at 24 h: 1790 µg/mL (≈ 5.5 mM)
  solubility x: 1.20 (0.02) × 10^−3 mole fraction
[1]; neat triglyme, 298.1 K
  solubility at 24 h: 420 µg/mL (≈ 1.29 mM)
  solubility x: 2.34 (0.06) × 10^−4 mole fraction
[1]; neat γ-heptalactone, 298.1 K
  solubility at 24 h: 1090 µg/mL (≈ 3.35 mM)
  solubility x: 4.25 (0.06) × 10^−4 mole fraction
[1]; [4]
  solubility at 24 h: 710 µg/mL (≈ 2.18 mM)
  solubility x: 3.46 (0.07) × 10^−4 mole fraction
[1]; neat 1-butanol
  solubility at 24 h: 70 µg/mL (≈ 0.215 mM)
[1]; neat 1-butanol, 298.1 K
  solubility x: 0.21 (0.01) × 10^−4 mole fraction
[1]; neat 1-propanol
  solubility at 24 h: 100 µg/mL (≈ 0.307 mM)
[1]; neat 1-propanol, 298.1 K
  solubility x: 0.23 (0.01) × 10^−4 mole fraction
[1]; neat 4FM
  solubility at 24 h: 3470 µg/mL (≈ 10.7 mM)
[1]; neat 4FM, 298.1 K
  solubility x: 1.06 (0.04) × 10^−3 mole fraction
[1]; neat ethanol
  solubility at 24 h: 150 µg/mL (≈ 0.461 mM)
[1]; neat ethanol, 298.1 K
  solubility x: 0.26 (0.01) × 10^−4 mole fraction
[1]; neat ε-caprolactone
  solubility at 24 h: 1010 µg/mL (≈ 3.1 mM)
[1]; neat ε-caprolactone, 298.1 K
  solubility x: 3.25 (0.09) × 10^−4 mole fraction
[2]; NMP-water binary mixture, x*NMP 0.1, 25 °C, aqueous with cosolvent or surfactant or cyclodextrin, x*NMP 0.1, 298.1 K
  solubility at 24 h: 5750 µg/mL (≈ 17.7 mM)
[2]; NMP-water binary mixture, x*NMP 0.2, 25 °C, aqueous with cosolvent or surfactant or cyclodextrin, x*NMP 0.2, 298.1 K
  solubility at 24 h: 12100 µg/mL (≈ 37.2 mM)
[2]; NMP-water binary mixture, x*NMP 0.3, 25 °C, aqueous with cosolvent or surfactant or cyclodextrin, x*NMP 0.3, 298.1 K
  solubility at 24 h: 18200 µg/mL (≈ 56 mM)
[2]; NMP-water binary mixture, x*NMP 0.4, 25 °C, aqueous with cosolvent or surfactant or cyclodextrin, x*NMP 0.4, 298.1 K
  solubility at 24 h: 23300 µg/mL (≈ 71.6 mM)
[2]; NMP-water binary mixture, x*NMP 0.7, 25 °C, aqueous with cosolvent or surfactant or cyclodextrin, x*NMP 0.7, 298.1 K
  solubility at 24 h: 34500 µg/mL (≈ 106 mM)
[2]; NMP-water binary mixture, x*NMP 0.8, 25 °C, aqueous with cosolvent or surfactant or cyclodextrin, x*NMP 0.8, 298.1 K
  solubility at 24 h: 35900 µg/mL (≈ 110 mM)
[2]; NMP-water binary mixture, x*NMP 0.9, 25 °C, aqueous with cosolvent or surfactant or cyclodextrin, x*NMP 0.9, 298.1 K
  solubility at 24 h: 34900 µg/mL (≈ 107 mM)
[2]; NMP-water binary solvent, 25 °C, aqueous with cosolvent or surfactant or cyclodextrin, x*NMP 0.5, 298.1 K
  solubility at 24 h: 29500 µg/mL (≈ 90.7 mM)
[2]; NMP-water binary solvent, 25 °C, aqueous with cosolvent or surfactant or cyclodextrin, x*NMP 0.6, 298.1 K
  solubility at 24 h: 33000 µg/mL (≈ 101 mM)
[2]; NMP-water series, x*NMP 1.0, 25 °C, organic solvent or mixture, x*NMP 1.0, 298.1 K
  solubility at 24 h: 32700 µg/mL (≈ 101 mM)
[2]; x*NMP 0.1, 298.1 K
  solubility x: 4.43 (0.05) × 10^−4 mole fraction
[2]; x*NMP 0.2, 298.1 K
  solubility x: 1.23 (0.01) × 10^−3 mole fraction
[2]; x*NMP 0.3, 298.1 K
  solubility x: 2.32 (0.03) × 10^−3 mole fraction
[2]; x*NMP 0.4, 298.1 K
  solubility x: 3.53 (0.04) × 10^−3 mole fraction
[2]; x*NMP 0.5, 298.1 K
  solubility x: 5.24 (0.06) × 10^−3 mole fraction
[2]; x*NMP 0.6, 298.1 K
  solubility x: 6.71 (0.08) × 10^−3 mole fraction
[2]; x*NMP 0.7, 298.1 K
  solubility x: 7.95 (0.08) × 10^−3 mole fraction
[2]; x*NMP 0.8, 298.1 K
  solubility x: 8.96 (0.09) × 10^−3 mole fraction
[2]; x*NMP 0.9, 298.1 K
  solubility x: 9.53 (0.11) × 10^−3 mole fraction
[2]; x*NMP 1.0, 298.1 K
  solubility x: 9.80 (0.13) × 10^−3 mole fraction
[3]; DMSO-water binary mixture, aqueous with cosolvent or surfactant or cyclodextrin, x*DMSO 0.1, 298.1 K
  solubility at 24 h: 3220 µg/mL (≈ 9.9 mM)
[3]; DMSO-water binary mixture, aqueous with cosolvent or surfactant or cyclodextrin, x*DMSO 0.2, 298.1 K
  solubility at 24 h: 6950 µg/mL (≈ 21.4 mM)
[3]; DMSO-water binary mixture, aqueous with cosolvent or surfactant or cyclodextrin, x*DMSO 0.3, 298.1 K
  solubility at 24 h: 10800 µg/mL (≈ 33.2 mM)
[3]; DMSO-water binary mixture, aqueous with cosolvent or surfactant or cyclodextrin, x*DMSO 0.4, 298.1 K
  solubility at 24 h: 14300 µg/mL (≈ 44 mM)
[3]; DMSO-water binary mixture, aqueous with cosolvent or surfactant or cyclodextrin, x*DMSO 0.5, 298.1 K
  solubility at 24 h: 18400 µg/mL (≈ 56.6 mM)
[3]; DMSO-water binary mixture, aqueous with cosolvent or surfactant or cyclodextrin, x*DMSO 0.6, 298.1 K
  solubility at 24 h: 21000 µg/mL (≈ 64.6 mM)
[3]; DMSO-water binary mixture, aqueous with cosolvent or surfactant or cyclodextrin, x*DMSO 0.7, 298.1 K
  solubility at 24 h: 24100 µg/mL (≈ 74.1 mM)
[3]; DMSO-water binary mixture, aqueous with cosolvent or surfactant or cyclodextrin, x*DMSO 0.8, 298.1 K
  solubility at 24 h: 25400 µg/mL (≈ 78.1 mM)
[3]; DMSO-water binary mixture, aqueous with cosolvent or surfactant or cyclodextrin, x*DMSO 0.9, 298.1 K
  solubility at 24 h: 24100 µg/mL (≈ 74.1 mM)
[3]; DMSO-water series, organic solvent or mixture, x*DMSO 1.0, 298.1 K
  solubility at 24 h: 21400 µg/mL (≈ 65.8 mM)
[3]; x*DMSO 0.1, 298.1 K
  solubility x: 2.11 (0.02) × 10^−4 mole fraction
[3]; x*DMSO 0.2, 298.1 K
  solubility x: 5.76 (0.06) × 10^−4 mole fraction
[3]; x*DMSO 0.3, 298.1 K
  solubility x: 1.08 (0.01) × 10^−3 mole fraction
[3]; x*DMSO 0.4, 298.1 K
  solubility x: 1.69 (0.02) × 10^−3 mole fraction
[3]; x*DMSO 0.5, 298.1 K
  solubility x: 2.46 (0.02) × 10^−3 mole fraction
[3]; x*DMSO 0.6, 298.1 K
  solubility x: 3.18 (0.03) × 10^−3 mole fraction
[3]; x*DMSO 0.7, 298.1 K
  solubility x: 4.01 (0.05) × 10^−3 mole fraction
[3]; x*DMSO 0.8, 298.1 K
  solubility x: 4.68 (0.03) × 10^−3 mole fraction
[3]; x*DMSO 0.9, 298.1 K
  solubility x: 4.86 (0.08) × 10^−3 mole fraction
[3]; x*DMSO 1.0, 298.1 K
  solubility x: 4.63 (0.14) × 10^−3 mole fraction
